{
  "source": "patent EP0335545B2",
  "about": "“Pharmaceutical formulations for parenteral use” (UNIVERSITY OF FLORIDA, priority 1988, dated 1989)",
  "key": {"[1]": {"experiment": "Preparation of solid freeze-dried HPCD complexes: degree of incorporation", "format": "physicochemical", "conditions": "freeze-dried complex from 50% w/w HPCD (ASDS 5.1)", "method": "An excess of E2-CDS was added and the solution then was purged with helium. The resulting suspension was then sonicated for 30 minutes, filtered through a glass filter (ASTM 10-15M, Pyrex No. 36060) and freeze-dried overnight. Best results were obtained by hard-freezing the aqueous solution of the E2-CDS/HPCD complex for at least 10 hours before lyophilization. The degree of complex formation was determined by dissolving a small amount of the dry complex in methanol and then analyzing by high pressure liquid chromatography (HPLC).\nAn excess of E2-CDS or other CDS was added to a 50% w/w solution of HPCD. The suspension was sonicated for 30 minutes, filtered through 0.45 µm PVDF membranes and freeze-dried. The degree of incorporation was determined either spectrophotometrically or by HPLC. In some cases, the effect of solubilizing agents on the degree of incorporation was examined. This involved adding small amounts of polyoxyethylene 20 cetyl ether (Brij), polyoxyethylene sorbitan monooleate (Tween 80) or ethanol to the aqueous solution prior to lyophilization.\nThe retention time was 5.2 min. Other compounds were assayed spectrophotometrically.\nThe solution was degassed and the suspension was sonicated for 30 minutes, after which it was filtered and the filtrate was lyophilized. The dried filtrate contained 65.6 mg testosterone propionate or 29.6 mg T-CDS1 per gram of cyclodextrin complex. Compounds were analyzed for decomposition by thin-layer chromatography and ultraviolet absorption."}, "[2]": {"experiment": "Maximum concentrations of selected CDS in varying concentrations of selected cyclodextrins", "format": "physicochemical", "method": "In further testing, maximum concentrations of selected CDS in varying concentrations of selected cyclodextrins were determined. The concentration of E2-CDS (mg/mL) was as follows: […]"}, "[3]": {"experiment": "Phase-solubility experiments in aqueous HPCD at 25±1°C", "method": "For comparison, the solubilities of the drugs in water were also determined.\n• Wavelength: 245 nm • Column: Waters µBondapak CN, 3.9 mm (id.) x 30 cm • Mobile phase: acetonitrile, acetic acid, water (60:1:39) containing 0.1% 1-hexasulfonic acid, sodium salt • Flow rate: 2.00 mL/min.\n• Wavelength: 263 nm • Column: ASI C18, 10 µm, 3.9 mm (i.d.) x 30 cm • Mobile phase: acetonitrile, water (55:45) • Flow rate: 1.00 mL/min.\n• Wavelength: 241 nm • Column: Waters µBondapak CN, 3.9 mm (i.d.) x 30 cm • Mobile phase: acetonitrile, water (6:4) • Flow rate: 2.00 mL/min.\n• Wavelength: 280 nm • Column: ASI C18, 10 µm, 3.9 mm (i.d.) x 30 cm • Mobile phase: acetonitrile, water (55:45) • Flow rate: 2.00 mL/min.\n• Wavelength: 248 nm • Column: Fisher Resolvex C18, 4.6 mm (i.d.) x 25 cm • Mobile phase: acetonitrile, water (6:4) • Flow rate: 1.50 mL/min.\n• Wavelength: 248 nm • Column: Fisher Resolvex C18, 4.6 mm (i.d.) x 25 cm • Mobile phase: acetonitrile, water (7:3) • Flow rate: 2.00 mL/min.\n• Wavelength: 253 nm • Column: Waters µBondapak CN, 3.9 mm (i.d.) x 30 cm • Mobile phase: acetonitrile, […], water (60:1:39) containing 0.1% 1-hexanesulfonic acid, sodium salt • Flow rate: 2.00 mL/min.\n• Wavelength 308 nm • Column: Fisher Resolvex C18, 4.6 mm (i.d.) x 25 cm • Mobile phase: methanol, acetic acid, water (50:1:49) containing 0.1% 1-octanesulfonic acid, sodium salt • Flow rate: 2.00 mL/min.\n• Wavelength: 240 nm • Column: Fisher Resolvex C18, 4.6 mm (i.d.) x 25 cm • Mobile phase: acetonitrile, water (6:4) • Flow rate: 1.50 mL/min.\n• Wavelength: 240 nm • Column: Fisher Resolvex C18, 4.6 mm (i.d.) x 25 cm Mobile phase: acetonitrile, water (7:3) • Flow rate: 2.00 mL/min.\n• Wavelength: 241 nm • Column: Fisher Resolvex C18, 4.6 mm (i.d.) x 25 cm • Mobile phase: acetonitrile, water (7:3) • Flow rate: 2.00 mL/min.\n• Wavelength: 230 nm • Column: Waters µBondapak CN, 3.9 mm (i.d.) x 30 cm • Mobile phase: acetonitrile, water (35:65) • Flow rate: 2.00 mL/min.\n• Wavelength: 258 nm • Column: Fisher Resolvex C18, 4.6 mm (i.d.) x 25 cm • Mobile phase: acetonitrile, water (55:45) • Flow rate: 2.00 mL/min.\n• Wavelength: 325 nm • Column: Waters µBondapak C18, 10 µm, 3.9 mm (i.d.) x 30 cm • Mobile phase: acetonitrile, water (55:45) • Flow rate: 1.00 mL/min."}, "physchem [4]": {"experiment": "physchem", "quoted_text": "After equilibration in a 30.0±0.2°C water bath in the dark for up to 72 hours, aliquots of the mixtures were filtered through 0.45 Mm membrane filters, diluted and the drug concentration determined by HPLC or UV methods."}, "physchem [5]": {"experiment": "physchem", "conditions": "50% w/w aqueous hpcd", "method": "An excess of E2-CDS was sonicated with an aqueous solution of the appropriate solubilizing agent for 30 minutes. The suspension was then centrifuged, filtered through 0.45 µm polyvinylidene difluoride (Millex-HV4, Millipore®) membranes and analyzed by HPLC. […] An estimation of the bulk equilibrium constant was obtained by correlating the millimolarity of E2-CDS solubilized and the millimolarity of the cyclodextrin added. This latter value was calculated using the average molecular weight of the isomeric mixture determined by mass spectroscopy. The solubilizing effect of a 50% w/w solution of HPCD was also examined for a series of steroids and dihydropyridines (CDS). These studies were carried out in a similar manner to those previously described.\nFor the CDS, the wavelength monitored was 360 nm while for estrogen 220 nm was used.\nSeparation was achieved on an Analytical Sciences, Inc. (ASI) 10 µm particle size, C18 reversed phase 30 cm x 3.9 mm i.d. analytical column. The flow rate was 1 mL/min, the compounds were detected at 360 nm and in all determinations the temperature was ambient. […] For the GABA-CDS1, a mobile phase consisting of 50:1:1:48 of the same components was required. […] Other compounds were assayed spectrophotometrically."}},
  "data": [
    {"molecule": "1-methyl-3-N-[3-(benzyloxycarbonyl)propyl]-carbamoyl-1,4-dihydropyridine [GABA-CDS1]", "values": [
      {"measurement": "Amount of Drug in Dry Complex", "setting": "[1]", "value": 160, "unit": "mg/g"}
    ]},
    {"molecule": "1-methyl-3-{[2-(9-guanylmethoxy)ethoxy]carbonyl}-1,4-dihydropyridine [ACV-CDS]", "values": [
      {"measurement": "Amount of Drug in Dry Complex", "setting": "[1]", "value": 25, "unit": "mg/g"}
    ]},
    {"molecule": "17β-{[(1-methyl-1,4-dihydropyridin-3-yl)carbonyl]oxy}-19-norpregn-4-en-20-yn-3-one [norethindrone-CDS]", "values": [
      {"measurement": "concentration of the norethindrone-CDS", "setting": "[2]; 40% hpcd", "value": 7.13, "unit": "mg/g"},
      {"measurement": "concentration of the norethindrone-CDS", "setting": "[2]; 40% hpgcd", "value": 15.9, "unit": "mg/g"},
      {"measurement": "Amount of Drug in Dry Complex", "setting": "[1]", "value": 0.6, "unit": "mg/g"}
    ]},
    {"molecule": "C#C[C@]1(O)CC[C@H]2[C@@H]3CCc4cc(O)ccc4[C@H]3CC[C@@]21C", "note": "[17 α-Ethynylestradiol]", "values": [
      {"measurement": "solubility", "setting": "[3]; 25% w/v hpcd", "value": 34500, "unit": "µg/mL"},
      {"measurement": "solubility", "setting": "[3]; 50% w/w hpcd", "value": 68200, "unit": "µg/mL"},
      {"measurement": "solubility", "setting": "[3]; water", "value": 8, "unit": "µg/mL"}
    ]},
    {"molecule": "CC1=C(/C=C/C(C)=C/C=C/C(C)=C/CO)C(C)(C)CCC1", "note": "[All-trans-Retinol]", "values": [
      {"measurement": "Increase in Solubility (HPCD/water)", "setting": "[3]", "value": "∼4,600"},
      {"measurement": "solubility", "setting": "[3]; 50% w/w hpcd", "value": 4600, "unit": "µg/mL"},
      {"measurement": "solubility", "setting": "[3]; water", "value": 1, "unit": "µg/mL"}
    ]},
    {"molecule": "O=C(O)CCCc1ccc(N(CCCl)CCCl)cc1", "note": "[Chlorambucil]", "values": [
      {"measurement": "solubility at 3 h", "setting": "physchem [4]; 1% aqueous hpcd", "value": 740, "unit": "µg/mL"},
      {"measurement": "solubility at 84 h", "setting": "physchem [4]; 1% aqueous hpcd", "value": 550, "unit": "µg/mL"},
      {"measurement": "solubility at 3 h", "setting": "physchem [4]; 2% aqueous hpcd", "value": 1480, "unit": "µg/mL"},
      {"measurement": "solubility at 84 h", "setting": "physchem [4]; 2% aqueous hpcd", "value": 840, "unit": "µg/mL"},
      {"measurement": "solubility at 3 h", "setting": "physchem [4]; 3% aqueous hpcd", "value": 2370, "unit": "µg/mL"},
      {"measurement": "solubility at 84 h", "setting": "physchem [4]; 3% aqueous hpcd", "value": 680, "unit": "µg/mL"},
      {"measurement": "solubility at 3 h", "setting": "physchem [4]; 4% aqueous hpcd", "value": 3220, "unit": "µg/mL"},
      {"measurement": "solubility at 84 h", "setting": "physchem [4]; 4% aqueous hpcd", "value": 1500, "unit": "µg/mL"},
      {"measurement": "solubility at 3 h", "setting": "physchem [4]; 5% aqueous hpcd", "value": 1460, "unit": "µg/mL"},
      {"measurement": "solubility at 84 h", "setting": "physchem [4]; 5% aqueous hpcd", "value": 1800, "unit": "µg/mL"},
      {"measurement": "solubility at 84 h", "setting": "physchem [4]; 7% aqueous hpcd", "value": 3760, "unit": "µg/mL"},
      {"measurement": "solubility at 3 h", "setting": "physchem [4]; 10% aqueous hpcd", "value": 4960, "unit": "µg/mL"},
      {"measurement": "solubility at 84 h", "setting": "physchem [4]; 10% aqueous hpcd", "value": 5200, "unit": "µg/mL"},
      {"measurement": "solubility at 3 h", "setting": "physchem [4]; 15% aqueous hpcd", "value": 6360, "unit": "µg/mL"},
      {"measurement": "solubility at 84 h", "setting": "physchem [4]; 15% aqueous hpcd", "value": 7600, "unit": "µg/mL"},
      {"measurement": "solubility", "setting": "physchem [4]; 20% aqueous hpcd", "value": 13100, "unit": "µg/mL"},
      {"measurement": "solubility at 3 h", "setting": "physchem [4]; 20% aqueous hpcd", "value": 8490, "unit": "µg/mL"},
      {"measurement": "solubility at 84 h", "setting": "physchem [4]; 20% aqueous hpcd", "value": 13100, "unit": "µg/mL"},
      {"measurement": "solubility", "setting": "physchem [4]; 25% aqueous hpcd", "value": 18400, "unit": "µg/mL"},
      {"measurement": "solubility at 3 h", "setting": "physchem [4]; 25% aqueous hpcd", "value": 8850, "unit": "µg/mL"},
      {"measurement": "solubility at 84 h", "setting": "physchem [4]; 25% aqueous hpcd", "value": 18400, "unit": "µg/mL"},
      {"measurement": "solubility at 4 h", "setting": "physchem [4]; 50% aqueous hpcd", "value": "~30000", "unit": "µg/mL"},
      {"measurement": "solubility at 3 h", "setting": "physchem [4]; aqueous 7% hpcd", "value": 2710, "unit": "µg/mL"},
      {"measurement": "solubility", "setting": "physchem [4]; water", "value": 410, "unit": "µg/mL"},
      {"measurement": "solubility at 3 h", "setting": "physchem [4]; water (0% hpcd)", "value": 10, "unit": "µg/mL"},
      {"measurement": "solubility at 84 h", "setting": "physchem [4]; water (0% hpcd)", "value": 410, "unit": "µg/mL"}
    ]},
    {"molecule": "CN1C=CCC(C(=O)NCCc2ccc(OC(=O)C(C)(C)C)c(OC(=O)C(C)(C)C)c2)=C1", "note": "[DA-CDS, 1-methyl-3-{{N-{β-[3,4-bis-(pivalyloxy)phenyl]ethyl}-carbamoyl}}-1,4-dihydropyridine]", "values": [
      {"measurement": "Amount of Drug in Dry Complex", "setting": "[1]", "value": 27, "unit": "mg/g"},
      {"measurement": "solubility", "setting": "physchem [5]", "value": 16000, "unit": "µg/mL"}
    ]},
    {"molecule": "C[C@@H]1C[C@H]2[C@@H]3CCC4=CC(=O)C=C[C@]4(C)[C@@]3(F)[C@@H](O)C[C@]2(C)[C@@]1(O)C(=O)CO", "note": "[Dexamethasone]", "values": [
      {"measurement": "solubility", "setting": "[3]; 25% w/v hpcd", "value": 24200, "unit": "µg/mL"},
      {"measurement": "solubility", "setting": "[3]; 50% w/w hpcd", "value": 44300, "unit": "µg/mL"},
      {"measurement": "solubility", "setting": "[3]; water", "value": 8, "unit": "µg/mL"}
    ]},
    {"molecule": "COc1ccc2c(c1)CC[C@@H]1[C@@H]2CC[C@]2(C)[C@@H](O)CC[C@@H]12", "note": "[Estradiol 3-Methyl Ether]", "values": [
      {"measurement": "solubility", "setting": "physchem [5]", "value": 30000, "unit": "µg/mL"}
    ]},
    {"molecule": "C[C@]12CC[C@@H]3c4ccc(O)cc4CC[C@H]3[C@@H]1C[C@@H](O)[C@@H]2O", "note": "[Estriol]", "values": [
      {"measurement": "solubility", "setting": "physchem [5]", "value": 40000, "unit": "µg/mL"}
    ]}
  ]
}
